Experimental data reported in the kinase profiling compilation of Christmann-Franck et al. (2016).

Assays:
Experiment in all cases: Caliper, Mobility shift assay off-chip
[1] = target: AURKA (human) (UniProt O14965)
[2] = target: AXL (human) (UniProt P30530)
[3] = target: BLK (human) (UniProt P51451)
[4] = target: BMX (human) (UniProt P51813)
[5] = target: BRSK2 (human) (UniProt Q8IWQ3)
[6] = target: CAMK2G (human) (UniProt Q13555)
[7] = target: CHUK (human) (UniProt O15111)
[8] = target: CSF1R (human) (UniProt P07333)
[9] = target: CSNK1G2 (human) (UniProt P78368)
CSNK1G2 (human), sequence (P78368 whole entry, looked up): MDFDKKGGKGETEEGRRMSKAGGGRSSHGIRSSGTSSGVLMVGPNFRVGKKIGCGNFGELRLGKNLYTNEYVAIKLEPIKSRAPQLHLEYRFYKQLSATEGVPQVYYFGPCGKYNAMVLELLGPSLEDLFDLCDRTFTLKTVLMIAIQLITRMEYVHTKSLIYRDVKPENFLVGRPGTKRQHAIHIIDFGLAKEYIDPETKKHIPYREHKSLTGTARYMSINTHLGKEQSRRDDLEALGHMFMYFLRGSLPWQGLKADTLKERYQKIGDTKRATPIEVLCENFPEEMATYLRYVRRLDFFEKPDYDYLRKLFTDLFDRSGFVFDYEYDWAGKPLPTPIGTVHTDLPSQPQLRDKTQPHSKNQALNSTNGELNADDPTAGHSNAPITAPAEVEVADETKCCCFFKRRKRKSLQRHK

[10] = target: DDR2 (human) (UniProt Q16832)
[11] = target: EPHA6 (human) (UniProt Q9UF33)
[12] = target: EPHA8 (human) (UniProt P29322)
[13] = target: EPHB2 (human) (UniProt P29323)
[14] = target: EPHB3 (human) (UniProt P54753)
[15] = target: ERBB2 (human) (UniProt P04626); conditions: compound 0.02 µM
[16] = target: FER (human) (UniProt P16591)
[17] = target: FGFR1 (human) (UniProt P11362)
[18] = target: HIPK4 (human) (UniProt Q8NE63)
[19] = target: IKBKB (human) (UniProt O14920)
[20] = target: INSR (human) (UniProt P06213)
INSR (human), sequence (P06213 whole entry, looked up): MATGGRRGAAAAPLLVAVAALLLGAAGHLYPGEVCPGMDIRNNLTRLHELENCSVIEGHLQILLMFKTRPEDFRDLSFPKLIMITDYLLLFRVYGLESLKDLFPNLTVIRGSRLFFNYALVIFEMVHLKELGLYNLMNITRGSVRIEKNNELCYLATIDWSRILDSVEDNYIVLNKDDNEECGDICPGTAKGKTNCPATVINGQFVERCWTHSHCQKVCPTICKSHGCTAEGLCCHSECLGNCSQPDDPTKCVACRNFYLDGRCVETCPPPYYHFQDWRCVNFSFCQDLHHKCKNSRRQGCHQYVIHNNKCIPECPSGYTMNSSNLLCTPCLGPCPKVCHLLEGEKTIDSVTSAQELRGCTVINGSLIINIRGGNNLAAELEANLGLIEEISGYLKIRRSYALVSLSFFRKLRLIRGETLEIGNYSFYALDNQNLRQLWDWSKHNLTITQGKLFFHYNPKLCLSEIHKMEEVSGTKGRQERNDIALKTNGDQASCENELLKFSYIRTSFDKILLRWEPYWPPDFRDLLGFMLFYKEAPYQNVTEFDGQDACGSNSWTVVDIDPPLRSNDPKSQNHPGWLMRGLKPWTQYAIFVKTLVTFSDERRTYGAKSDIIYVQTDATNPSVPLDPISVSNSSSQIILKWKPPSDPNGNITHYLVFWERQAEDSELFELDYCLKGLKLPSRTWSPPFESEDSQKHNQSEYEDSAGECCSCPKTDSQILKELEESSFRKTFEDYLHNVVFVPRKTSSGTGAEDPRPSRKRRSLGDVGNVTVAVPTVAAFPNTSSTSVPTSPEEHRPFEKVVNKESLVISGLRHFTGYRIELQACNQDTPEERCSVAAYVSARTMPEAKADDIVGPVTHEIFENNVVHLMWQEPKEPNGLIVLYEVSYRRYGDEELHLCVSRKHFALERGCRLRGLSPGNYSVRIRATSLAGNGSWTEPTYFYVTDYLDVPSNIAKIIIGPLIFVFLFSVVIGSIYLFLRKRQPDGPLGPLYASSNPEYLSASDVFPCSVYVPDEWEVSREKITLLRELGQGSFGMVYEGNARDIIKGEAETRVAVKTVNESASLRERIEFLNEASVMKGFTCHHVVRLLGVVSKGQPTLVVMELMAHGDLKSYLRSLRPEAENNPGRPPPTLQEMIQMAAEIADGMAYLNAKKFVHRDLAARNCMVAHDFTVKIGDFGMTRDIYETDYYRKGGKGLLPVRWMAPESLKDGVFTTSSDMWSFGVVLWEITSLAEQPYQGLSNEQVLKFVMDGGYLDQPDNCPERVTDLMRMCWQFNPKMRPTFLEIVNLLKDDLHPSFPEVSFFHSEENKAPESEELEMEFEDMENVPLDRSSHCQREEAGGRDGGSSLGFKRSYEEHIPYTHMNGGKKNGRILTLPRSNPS

[21] = target: INSRR (human) (UniProt P14616)
[22] = target: ITK (human) (UniProt Q08881)
ITK (human), sequence (Q08881 whole entry, looked up): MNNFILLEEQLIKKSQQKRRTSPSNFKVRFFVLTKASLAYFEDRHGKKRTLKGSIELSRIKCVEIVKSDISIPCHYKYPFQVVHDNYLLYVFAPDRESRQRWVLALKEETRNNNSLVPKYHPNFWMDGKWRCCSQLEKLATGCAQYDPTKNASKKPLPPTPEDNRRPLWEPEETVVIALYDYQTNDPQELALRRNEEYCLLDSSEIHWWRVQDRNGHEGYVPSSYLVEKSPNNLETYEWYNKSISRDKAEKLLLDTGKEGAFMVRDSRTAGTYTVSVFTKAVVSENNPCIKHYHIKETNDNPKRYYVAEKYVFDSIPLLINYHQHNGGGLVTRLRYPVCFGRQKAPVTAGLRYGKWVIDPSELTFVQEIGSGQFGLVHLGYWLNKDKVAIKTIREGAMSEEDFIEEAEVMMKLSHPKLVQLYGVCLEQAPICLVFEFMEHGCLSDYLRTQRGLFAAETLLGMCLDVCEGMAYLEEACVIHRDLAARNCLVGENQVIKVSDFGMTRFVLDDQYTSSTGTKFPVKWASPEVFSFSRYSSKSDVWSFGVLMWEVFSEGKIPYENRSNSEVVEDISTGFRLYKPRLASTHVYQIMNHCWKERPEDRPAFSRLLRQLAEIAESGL

[23] = target: MAP4K4 (human) (UniProt O95819)
[24] = target: MAPK11 (human) (UniProt Q15759)
MAPK11 (human), sequence (Q15759 whole entry, looked up): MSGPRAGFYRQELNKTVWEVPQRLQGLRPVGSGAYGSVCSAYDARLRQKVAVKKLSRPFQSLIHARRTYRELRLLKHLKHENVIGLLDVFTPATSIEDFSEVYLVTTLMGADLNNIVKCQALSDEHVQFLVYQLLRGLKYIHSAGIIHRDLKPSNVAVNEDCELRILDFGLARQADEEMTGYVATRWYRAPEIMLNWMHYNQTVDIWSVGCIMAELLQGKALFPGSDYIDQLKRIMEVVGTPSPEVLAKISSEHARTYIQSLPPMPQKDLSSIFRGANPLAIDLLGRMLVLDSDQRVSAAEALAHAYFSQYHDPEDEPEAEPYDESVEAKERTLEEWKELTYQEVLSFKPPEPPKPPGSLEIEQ

[25] = target: MARK2 (human) (UniProt Q7KZI7)
[26] = target: PAK2 (human) (UniProt Q13177)
[27] = target: PAK3 (human) (UniProt O75914)
[28] = target: PAK7 (human) (UniProt Q9P286)
[29] = target: PBK (human) (UniProt Q96KB5)
[30] = target: PDGFRA (human) (UniProt P16234)
[31] = target: PRKACG (human) (UniProt P22612)
[32] = target: PRKCG (human) (UniProt P05129)
[33] = target: SIK2 (human) (UniProt Q9H0K1)
[34] = target: TAOK2 (human) (UniProt Q9UL54)
[35] = target: TBK1 (human) (UniProt Q9UHD2)
TBK1 (human), sequence (Q9UHD2 whole entry, looked up): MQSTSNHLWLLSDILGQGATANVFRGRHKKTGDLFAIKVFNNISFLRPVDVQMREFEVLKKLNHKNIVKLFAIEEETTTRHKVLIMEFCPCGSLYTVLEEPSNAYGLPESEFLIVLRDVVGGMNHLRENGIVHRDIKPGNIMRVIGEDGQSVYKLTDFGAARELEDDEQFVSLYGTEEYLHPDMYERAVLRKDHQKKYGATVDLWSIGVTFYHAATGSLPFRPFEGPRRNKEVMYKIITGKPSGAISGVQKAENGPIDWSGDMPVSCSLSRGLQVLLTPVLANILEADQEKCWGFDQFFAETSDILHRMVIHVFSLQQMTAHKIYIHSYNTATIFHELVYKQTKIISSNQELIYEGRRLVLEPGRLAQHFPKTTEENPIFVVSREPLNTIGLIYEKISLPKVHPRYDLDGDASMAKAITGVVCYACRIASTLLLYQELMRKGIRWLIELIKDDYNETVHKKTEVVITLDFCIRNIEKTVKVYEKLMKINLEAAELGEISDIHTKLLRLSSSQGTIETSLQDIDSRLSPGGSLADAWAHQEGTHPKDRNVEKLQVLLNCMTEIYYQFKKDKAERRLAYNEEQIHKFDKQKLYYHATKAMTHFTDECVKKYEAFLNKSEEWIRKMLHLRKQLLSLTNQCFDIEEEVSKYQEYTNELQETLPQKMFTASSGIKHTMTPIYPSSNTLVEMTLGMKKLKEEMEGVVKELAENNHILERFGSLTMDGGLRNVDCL

BMX (human), sequence (P51813 whole entry, looked up): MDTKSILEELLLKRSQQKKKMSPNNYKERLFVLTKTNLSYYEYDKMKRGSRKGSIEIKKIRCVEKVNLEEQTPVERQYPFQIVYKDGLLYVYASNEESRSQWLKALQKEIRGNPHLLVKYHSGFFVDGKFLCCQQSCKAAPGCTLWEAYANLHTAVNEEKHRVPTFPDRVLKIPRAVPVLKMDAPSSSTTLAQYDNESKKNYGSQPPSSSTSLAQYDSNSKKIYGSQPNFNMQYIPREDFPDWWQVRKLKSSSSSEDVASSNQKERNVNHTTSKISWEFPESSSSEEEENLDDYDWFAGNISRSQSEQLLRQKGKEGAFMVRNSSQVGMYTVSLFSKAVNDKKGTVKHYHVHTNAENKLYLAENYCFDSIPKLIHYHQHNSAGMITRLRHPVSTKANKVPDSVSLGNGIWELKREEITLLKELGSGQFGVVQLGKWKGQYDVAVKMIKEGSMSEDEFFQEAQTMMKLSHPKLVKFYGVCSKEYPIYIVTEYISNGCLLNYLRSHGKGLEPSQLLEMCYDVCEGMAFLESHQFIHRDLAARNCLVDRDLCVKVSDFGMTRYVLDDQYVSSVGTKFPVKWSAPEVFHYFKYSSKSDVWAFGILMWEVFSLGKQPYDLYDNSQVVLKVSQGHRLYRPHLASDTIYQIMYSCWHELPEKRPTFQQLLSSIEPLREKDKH
CHUK (human), sequence (O15111 whole entry, looked up): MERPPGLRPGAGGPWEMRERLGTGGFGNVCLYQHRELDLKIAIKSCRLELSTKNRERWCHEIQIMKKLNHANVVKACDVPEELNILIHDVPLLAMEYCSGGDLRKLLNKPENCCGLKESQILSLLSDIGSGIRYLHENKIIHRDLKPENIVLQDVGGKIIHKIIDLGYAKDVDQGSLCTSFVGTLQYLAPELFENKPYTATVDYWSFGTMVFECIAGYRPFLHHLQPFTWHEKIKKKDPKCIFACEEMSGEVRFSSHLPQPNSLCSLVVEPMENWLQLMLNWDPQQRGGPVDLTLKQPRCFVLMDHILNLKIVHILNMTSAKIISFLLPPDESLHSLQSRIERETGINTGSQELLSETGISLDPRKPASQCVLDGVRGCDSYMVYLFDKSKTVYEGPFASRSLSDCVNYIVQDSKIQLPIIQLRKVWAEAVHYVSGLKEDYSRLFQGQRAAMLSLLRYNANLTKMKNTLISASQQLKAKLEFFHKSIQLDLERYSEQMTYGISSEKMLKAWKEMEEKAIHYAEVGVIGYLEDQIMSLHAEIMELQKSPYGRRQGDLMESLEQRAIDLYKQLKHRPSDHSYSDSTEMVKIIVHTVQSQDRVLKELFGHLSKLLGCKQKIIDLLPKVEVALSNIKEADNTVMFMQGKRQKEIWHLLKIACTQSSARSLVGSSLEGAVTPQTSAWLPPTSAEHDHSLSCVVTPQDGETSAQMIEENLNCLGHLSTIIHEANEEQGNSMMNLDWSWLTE

SMILES: COc1cc2c(Oc3ccc4[nH]c(C)cc4c3F)ncnc2cc1OCCCN1CCCC1
- inhibition ([1]; compound 0.02 µM): 3.3%
- inhibition ([1]; compound 0.2 µM): 4.9%
- inhibition ([2]; compound 0.02 µM): 6.9%
- inhibition ([2]; compound 0.2 µM): 17.7%
- inhibition ([3]; compound 0.02 µM): 13.8%
- inhibition ([3]; compound 0.2 µM): 36.1%
- inhibition ([4]; compound 0.02 µM): 8.4%
- inhibition ([4]; compound 0.2 µM): 7.1%
- inhibition ([5]; compound 0.02 µM): -2.3%
- inhibition ([5]; compound 0.2 µM): 2.8%
- inhibition ([6]; compound 0.02 µM): 0.2%
- inhibition ([6]; compound 0.2 µM): 1.5%
- inhibition ([7]; compound 0.02 µM): 5.3%
- inhibition ([7]; compound 0.2 µM): 5.3%
- inhibition ([8]; compound 0.02 µM): 18.4%
- inhibition ([8]; compound 0.2 µM): 36.8%
- inhibition ([9]; compound 0.02 µM): -0.7%
- inhibition ([9]; compound 0.2 µM): -2.1%
- inhibition ([10]; compound 0.02 µM): 26.6%
- inhibition ([10]; compound 0.2 µM): 82.1%
- inhibition ([11]; compound 0.02 µM): 37.1%
- inhibition ([11]; compound 0.2 µM): 95.9%
- inhibition ([12]; compound 0.02 µM): -3.2%
- inhibition ([12]; compound 0.2 µM): 4.7%
- inhibition ([13]; compound 0.02 µM): -4.3%
- inhibition ([13]; compound 0.2 µM): 8.7%
- inhibition ([14]; compound 0.02 µM): -2.6%
- inhibition ([14]; compound 0.2 µM): -1.3%
- inhibition [15]: 3.9%
- inhibition ([16]; compound 0.02 µM): 8.7%
- inhibition ([16]; compound 0.2 µM): 11.2%
- inhibition ([17]; compound 0.02 µM): 52.9%
- inhibition ([17]; compound 0.2 µM): 91.2%
- inhibition ([18]; compound 0.02 µM): -0.9%
- inhibition ([18]; compound 0.2 µM): -6.5%
- inhibition ([19]; compound 0.02 µM): -4%
- inhibition ([19]; compound 0.2 µM): -4.5%
- inhibition ([20]; compound 0.02 µM): -0.3%
- inhibition ([20]; compound 0.2 µM): -2.4%
- inhibition ([21]; compound 0.02 µM): -0.3%
- inhibition ([21]; compound 0.2 µM): 13.3%
- inhibition ([22]; compound 0.02 µM): 6.7%
- inhibition ([22]; compound 0.2 µM): 5.5%
- inhibition ([23]; compound 0.02 µM): -0.2%
- inhibition ([23]; compound 0.2 µM): 15.5%
- inhibition ([24]; compound 0.02 µM): -2.6%
- inhibition ([24]; compound 0.2 µM): -3.5%
- inhibition ([25]; compound 0.02 µM): 6.9%
- inhibition ([25]; compound 0.2 µM): 9.2%
- inhibition ([26]; compound 0.02 µM): -4.1%
- inhibition ([26]; compound 0.2 µM): 3.5%
- inhibition ([27]; compound 0.02 µM): -1.7%
- inhibition ([27]; compound 0.2 µM): 3.3%
- inhibition ([28]; compound 0.02 µM): -5.8%
- inhibition ([28]; compound 0.2 µM): 7.3%
- inhibition ([29]; compound 0.02 µM): 0.1%
- inhibition ([29]; compound 0.2 µM): -6.1%
- inhibition ([30]; compound 0.02 µM): 39.2%
- inhibition ([30]; compound 0.2 µM): 86.9%
- inhibition ([31]; compound 0.02 µM): -4.7%
- inhibition ([31]; compound 0.2 µM): -1.4%
- inhibition ([32]; compound 0.02 µM): 3.8%
- inhibition ([32]; compound 0.2 µM): 4.1%
- inhibition ([33]; compound 0.02 µM): 3.7%
- inhibition ([33]; compound 0.2 µM): 16.5%
- inhibition ([34]; compound 0.02 µM): 3.1%
- inhibition ([34]; compound 0.2 µM): 3.3%
- inhibition ([35]; compound 0.02 µM): -1.8%
- inhibition ([35]; compound 0.2 µM): -1.6%
